{"source": "patent US8912137B2", "about": "“Method for increasing natriuresis or diuresis by isoforms of brain natriuretic peptide” (Mayo Foundation for Medical Education and Research, priority 2003, dated 2014)", "key": {"[1]": {"test_system": "Human umbilical vascular endothelial cells (HUVEC)", "assay": "Stimulation of intracellular cGMP production in HUVEC (BIOTRACK cGMP enzyme immunoassay)", "assay_type": "cell-based", "details": "30 minutes incubation, 0.5 mM IBXM", "procedure": "Human umbilical vascular endothelial cells (HUVEC) were cultured in 96-well plates using endothelial cell medium (EGM™-2) supplemented with the components provided by the EGM™-2 BulletKit (CC-3162) (Clonetics, East Rutherford, N.J.). After cells reached about 80% confluency, the plates were washed with phosphate-buffered saline ([…], SEQ ID NO:35) dissolved in EBM-2 that contained supplements and 0.5 mM IBXM. After incubation, the culture medium was aspirated, and the cells were assayed for intracellular cGMP production using the BIOTRACK cGMP enzyme immunoassay kit (Amersham Pharmacia Biotech). The amount of cGMP was calculated according the standard curve that was generated from parallel reactions within the same experiment."}, "normal dogs": {"test_system": "normal dogs", "assay": "Intrarenal arterial infusion in normal dog", "assay_type": "in vivo", "details": "intrarenal arterial infusion 0.03 ng/kg/min", "procedure": "To determine the physiological effects of BNP-3, the synthesized peptide was delivered via a direct intrarenal arterial infusion (0.03 ng/kg/min) in normal dogs. Physiologic assessment was performed following a 15 minute run-in period. […] Both of these increases normalized during a washout period."}, "[2]": {"test_system": "carotid arteries from New Zealand White Rabbits", "assay": "Vasoactivity in organ chamber, phenylephrine pre-contracted carotid artery rings", "details": "rabbit carotid rings", "procedure": "Vasoactivity was assessed in an organ chamber using carotid arteries from New Zealand White Rabbits. Following euthanization, carotids were immediately immersed in cold Krebs solution. Arterial rings ˜4 mm in length (n=6) were dissected, connected to isometric force displacement transducers, and suspended in organ chambers filled with 25 mL of Krebs (94% O2, 6% CO2). Rings were equilibrated for 1 hour at 37° C. and then incrementally stretched to 3 g. Viability and maximum contraction was determined with 60 mM KCl. After 3 washes with Krebs solution and further equilibration, arteries were pre-contracted with phenylephrine in a titrated fashion to achieve ˜80% stable maximal contraction. To study vasoactivity, BNP3 (final cone 10^−10 to 10^−7 M) or vehicle was added to the organ bath in a cumulative manner. Following three further washes and equilibration, the arteries were re-contracted and viability was confirmed by assessment of endothelium independent responses with incremental doses of sodium nitroprusside (10^−9 to 10^−5 M), an exogenous NO donor."}, "[3]": {"details": "cited from earlier work"}}, "data": [{"substance": "SPKMVQGSGCFGRKMDRISSSSGLGCKVVQKENQTFPPGFL (listed as Homo sapiens) [BNP3]", "values": [{"measurement": "cGMP", "setting": "[1]; BNP3 10^−8 M", "result": 26, "unit": "fmol/well"}, {"measurement": "cGMP", "setting": "[1]; BNP3 10^−9 M", "result": 18, "unit": "fmol/well"}, {"measurement": "cGMP", "setting": "[1]; BNP3 10^−10 M", "result": 1, "unit": "fmol/well"}, {"measurement": "increased urinary flow", "setting": "normal dogs", "result": "6-8 fold"}, {"measurement": "plasma cGMP", "setting": "normal dogs", "result": "elevation of plasma cGMP"}, {"measurement": "urinary excretion of sodium", "setting": "normal dogs", "result": "increased urinary excretion of sodium"}, {"measurement": "concentration at which vasorelaxation began", "setting": "[2]; cumulative addition 10^−10 to 10^−7 M", "result": "10^−9 M"}, {"measurement": "complete relaxation", "setting": "[2]; dose 10^−7M", "result": "~95", "unit": "%"}, {"measurement": "complete relaxation", "setting": "[2]; dose 10^−8M", "result": "~60", "unit": "%"}]}, {"substance": "recombinant BNP: recombinant brain natriuretic peptide, 32 amino acid peptide with a ring structure (SEQ ID NO:16)", "values": [{"measurement": "effect on heart rate", "setting": "[3]; in vivo", "result": "no effect"}, {"measurement": "pro-arrhythmic effect", "setting": "[3]; in vivo", "result": "not pro-arrhythmic"}, {"measurement": "cardiac index", "setting": "[3]; intravenous therapy", "result": "increases"}, {"measurement": "pulmonary capillary wedge pressure", "setting": "[3]; intravenous therapy", "result": "significantly decreases"}, {"measurement": "systemic vascular resistance", "setting": "[3]; intravenous therapy", "result": "significantly decreases"}]}]}
